Measurements: paper PMC12396409, “Screening and hit evaluation of a microbial metabolite library against the pathogenic Plasmodium falciparum and Toxoplasma gondii parasites” (International Journal for Parasitology: Drugs and Drug …, 2025)
Where two headings read alike, the source gives them in different places.

Experiments:
[1] = test system: P. falciparum 3D7 parasites; test: P. falciparum growth inhibition assay, 2-cycle (120 h treatment), delayed-death screen and dose-response; type: cell-based, Plasmodium falciparum; conditions: % growth; for activity at 2 µg/mL: Plasmodium falciparum, 3D7
[2] = test system: P. falciparum 3D7 parasites; test: P. falciparum growth inhibition assay, 1-cycle (72 h treatment), SYBR DNA staining (library screen at 2 μg/mL and dose-response); type: cell-based, Plasmodium falciparum; conditions: % growth; for activity at 2 µg/mL: Plasmodium falciparum, 3D7
[3] = test system: T. gondii RH strain (RH-Tub-eYFP) tachyzoites; test: microbe, parasite or virus in culture; type: cell-based, Toxoplasma gondii; conditions: 72 h, % growth; for percent parasite growth at 2 µg/mL: Toxoplasma gondii
[4] = library screen at 2 μg/mL, 120 h, replicate 1
[5] = library screen at 2 μg/mL, 120 h, replicate 2
[6] = library screen at 2 μg/mL, 72 h, replicate 1
[7] = library screen at 2 μg/mL, 72 h, replicate 2
[8] = library screen at 2 μg/mL, replicate 1
[9] = library screen at 2 μg/mL, replicate 2

Compound	Pf_120h_%Growth_Rep1 [1, 4] [%]	Pf_120h_%Growth_Rep2 [1, 5] [%]	Pf_72h_%Growth_Rep1 [2, 6] [%]	Pf_72h_%Growth_Rep2 [2, 7] [%]	Tg_72h_%Growth_Rep1 [3, 8] [%]	Tg_72h_%Growth_Rep2 [3, 9] [%]	also measured
CC(=O)NCCc1ccc(O)cc1 [Acetyltyramine, N-]	85.62	81.27	85.43	84.08	171.49	89.14	
CCO[C@@H]1[C@@H](OC)[C@H](C)O[C@@H](O[C@@H]2C[C@H]3CC[C@@H]4[C@@H](C=C5C(=O)[C@H](C)[C@@H](O)CCC[C@H](CC)OC(=O)C[C@H]54)[C@@H]3C2)[C@@H]1OC							Pf_120h_%Growth_Rep1 ([1]; P. falciparum, 120 h, parasite screen 2 μg/mL, replicate 1): 31.22%; Pf_120h_%Growth_Rep2 ([1]; P. falciparum, 120 h, parasite screen 2 μg/mL, replicate 2): 24.15%; Pf_72h_%Growth_Rep1 ([2]; P. falciparum, 72 h, parasite screen 2 μg/mL, replicate 1): 35.55%; Pf_72h_%Growth_Rep2 ([2]; P. falciparum, 72 h, parasite screen 2 μg/mL, replicate 2): 25.61%; Tg_72h_%Growth_Rep1 ([3]; T. gondii, parasite screen 2 μg/mL, replicate 1): 110.35%; Tg_72h_%Growth_Rep2 ([3]; T. gondii, parasite screen 2 μg/mL, replicate 2): 84.17%
CO/C1=C\C(C)=C\[C@@H](C)[C@@H](O)[C@@H](C)C/C(C)=C/C=C/[C@H](OC)[C@@H]([C@@H](C)[C@@H](O)[C@H](C)[C@@]2(O)C[C@@H](OC(=O)/C=C/C(=O)NC3=C(O)CCC3=O)[C@H](C)[C@@H](C(C)C)O2)OC1=O [Bafilomycin B1]	5.87	11.47	2.46	1.87	-0.95	0.68	
C/C=C\C=C\[C@@H]1O[C@](O)([C@H](CC)C(=O)NC/C=C/C=C(\C)[C@@H](OC)[C@@H](C)[C@H]2C[C@@H](O)[C@@H](/C=C/C=C/C=C/C(=O)O)O2)[C@H](O)[C@H](O)C1(C)C [A 83016F]	83.40	76.05	83.31	85.46	147.54	91.91	
CC=C(C)c1c(Cl)c(O)c(C)c2c1Oc1c(Cl)c(O)c(Cl)c(C)c1C(=O)O2 [BIA-N1159]							Pf_120h_%Growth_Rep1 ([1]; P. falciparum 3D7, 120 h, parasite screen at 2 μg/mL, replicate 1): 97.37%; Pf_120h_%Growth_Rep2 ([1]; P. falciparum 3D7, 120 h, parasite screen at 2 μg/mL, replicate 2): 135.76%; Pf_72h_%Growth_Rep1 ([2]; P. falciparum 3D7, 72 h, parasite screen at 2 μg/mL, replicate 1): 85.21%; Pf_72h_%Growth_Rep2 ([2]; P. falciparum 3D7, 72 h, parasite screen at 2 μg/mL, replicate 2): 97.34%; Tg_72h_%Growth_Rep1 ([3]; T. gondii, parasite screen at 2 μg/mL, replicate 1): 86.78%; Tg_72h_%Growth_Rep2 ([3]; T. gondii, parasite screen at 2 μg/mL, replicate 2): 84.63%
CCc1cc(O)cc(O)c1C(=O)O[C@H]1[C@H](O)[C@H](OC)[C@H](OC/C2=C\C=C\C[C@H](O)/C(C)=C/[C@H](CC)[C@@H](O[C@@H]3OC(C)(C)[C@@H](OC(=O)C(C)C)[C@H](O)[C@@H]3O)/C(C)=C/C(C)=C/C[C@@H]([C@@H](C)O)OC2=O)O[C@@H]1C [Didechlorofidaxomicin]	14.52	29.62	4.39	6.69	110.91	90.14	
Albofungin	-0.91	21.65	6.93	9.97	-0.16	2.30	
CC[C@@H]1/C=C(\C)C[C@H](C)C[C@H](OC)[C@H]2O[C@@](O)(C(=O)C(=O)N3CCCC[C@H]3C(=O)O[C@H](/C(C)=C/[C@@H]3CC[C@@H](O)[C@H](OC)C3)[C@H](C)[C@@H](O)CC1=O)[C@H](C)C[C@@H]2OC [Ascomycin]							activity at 2 µg/mL ([1]; library screen at 2 μg/mL, 120 h, replicate 1, read-out: Pf_120h_%Growth_Rep1): 70.5%; activity at 2 µg/mL ([1]; library screen at 2 μg/mL, 120 h, replicate 2, read-out: Pf_120h_%Growth_Rep2): 40.4%; activity at 2 µg/mL ([2]; library screen at 2 μg/mL, 72 h, replicate 1, read-out: Pf_72h_%Growth_Rep1): 44.9%; activity at 2 µg/mL ([2]; library screen at 2 μg/mL, 72 h, replicate 2, read-out: Pf_72h_%Growth_Rep2): 50.6%; percent parasite growth at 2 µg/mL ([3]; library screen at 2 μg/mL, replicate 1, read-out: Tg_72h_%Growth_Rep1): 79.9%; percent parasite growth at 2 µg/mL ([3]; library screen at 2 μg/mL, replicate 2, read-out: Tg_72h_%Growth_Rep2): 79.4%
